According to patent US12303551B2, “Cellular immunotherapy compositions and uses thereof” (CERO THERPEUTICS HOLDINGS, INC., priority 2018, dated 2025):

Tested on: HCC827 NSCLC cells
Test: FACS phagocytosis assay of TAMRA-SE labeled HCC827 cells with or without bafilomycin
Format: cell-based
Conditions: 20 nM added to co-culture
Text: FIGS. 73A-73B show ablation of CER-induced phagocytosis by bafilomycin, an inhibitor of phagolysosome V-ATPase. CER104-modified CD4+ T cells and mock transduced CD4+ T cells (control) were co-cultured with HCC827 cells that were labeled with TAMRA-SE fluorescent dye and treated with osimertinib. Phagocytosis was quantified by FACs.
T cells were transduced with lentiviral vector comprising hCER104 nucleic acid as described in Example 6. hCER104 modified T cells were co-cultured with HCC827 adenocarcinoma cells with or without osimertinib. […] FACs plots from in vitro phagocytosis assays in hCER104 modified T cells or mock transduced control T cells are shown in FIG. 73B.

For `CO/C1=C\C(C)=C\[C@@H](C)[C@@H](O)[C@@H](C)C/C(C)=C/C=C/[C@H](OC)[C@@H]([C@@H](C)[C@@H](O)[C@H](C)[C@@]2(O)C[C@@H](O)[C@H](C)[C@@H](C(C)C)O2)OC1=O` [bafilomycin, reference compound], the “effect on uptake of labeled HCC827 cells by hCER104 modified T cells” value was “blocked uptake”.
